Here are results for 13 compounds from US4460782A, “2-Ethoxymethyl and 2-methoxymethyl N-(3,5-dichlorophenyl) succinamides” (Consortium fur Elektrochemische Industrie GmbH, priority 1980, dated 1984).

Like-named read-outs stand apart in the source and are kept apart here.

For assay [1], the system named is Botrytis cinerea. Nature of the assay: Grape juice test against Botrytis cinerea. The format is cell-based. To be noted: 10 ppm active substance. Here is the method:
20 ml of a nutrient solution consisting of grape juice and distilled water in a weight ratio of 1:1 are poured into glass petri dishes and the active substances listed in Table 1 are added thereto in the concentrations indicated. Each test mixture is then inoculated with 50 μl of a suspension of Botrytis spores, prepared by washing the Botrytis spores from an agar culture with distilled water.
After incubation periods of 10 and 20 days, respectively, at 20° C., the extent of fungal development on the surface of the nutrient solution is assessed.
The effectiveness is calculated as a percentage, according to the following formula: [formula] […]

The subject of another assay is Penicillium glaucum. The experiment in a line: Spore germination test, Penicillium glaucum. The format is cell-based. The following applies: 500 ppm active substance, 48 hours at 20° C., vs untreated control, read-out: Fungitoxicity against fungi spore, Penicillium glaucum (effectiveness). Here is the method: (§1) 50 μl of a solution or suspension containing 500 ppm of the active substance are introduced into the hollow of hollow-ground slides, together with 50 μl of a spore suspension prepared by washing the spores from an agar culture with a nutrient solution containing, per liter, 10 g of sugar, 1 g of glycol, 1 g of KH2 PO4 and 0.5 g of MgSO4.
(§2) The slides are kept at 20° C. for 48 hours in a petri dish, the base of which is covered with a moistened filter paper.
(§3) The ratio of germinated and ungerminated spores is then compared with an untreated control sample.
(§4) The effectiveness is calculated as a percentage according to the following formula: [formula]
(§5) The test set-up and procedure are the same as those described in Example 5.

A further assay has as its system Fusarium nivale. The experiment in a line: Spore germination test, Fusarium nivale. The format is cell-based. The following applies: Microdochium nivale; 500 ppm active substance; 48 hours at 20° C.; vs untreated control; read-out: Fungitoxicity against fungi spore, Fusarium nivale (effectiveness). How it is done: as §1, §2, §3, §4, §5
A further assay has as its system Tilletia tritici. Nature of the assay: Seed dressing test against wheat bunt (Tilletia tritici). Format: in vivo. To be noted: Tilletia caries, read-out: % effectiveness (percentage germination inhibition). Here is the method:
Healthy wheat seed is uniformly infected with spores of Tilletia tritici.The infected seed is subsequently dressed carefully with the active substances according to the invention, prepared in the form of dry dressings.
After being dressed, the wheat grains are placed in dishes of damp earth. Incubation takes place in a drying cupboard at from 14° to 17° C. After 48 hours, the spores adhering to the grains are removed by pressing the grains into loam/earth.
After incubation for a further eight days at from 14° to 17° C. in the drying cupboard, the ratio of germinated and ungerminated spores as, compared with an untreated control, is determined under a binocular microscope.
The action of the active substances according to the invention, is given as percentage germination inhibition. […]

Another assay has as its system Septoria nodorum. The experiment in a line: Spore germination test, Septoria nodorum. Format: cell-based. The following applies: Parastagonospora nodorum; 500 ppm active substance; 48 hours at 20° C.; vs untreated control; read-out: Fungitoxicity against fungi spore, Septoria nodorum (effectiveness). Here is the method: as §1, §2, §3, §4, §5
The test system of assay [2] is Botrytis cinerea. Nature of the assay: Spore germination test, Botrytis cinerea. Format: cell-based. The following applies: 500 ppm active substance, 48 hours at 20° C., vs untreated control, read-out: Fungitoxicity against fungi spore, Botrytis cinerea (effectiveness). Here is the method:
as §1, §2, §3, §4, §5

The subject of another assay is Alternaria solani. The experiment in a line: Spore germination test, Alternaria solani. Format: cell-based. The following applies: 500 ppm active substance, 48 hours at 20° C., vs untreated control, read-out: Fungitoxicity against fungi spore, Alternaria solani (effectiveness). Here is the method:
as §1, §2, §3, §4, §5

[3] abbreviates: 240 h, 10 days at 20° C., read-out: % effectiveness after 10 days.
The mark [4] stands for this setting: 480 h, 20 days at 20° C., read-out: % effectiveness after 20 days.

As a reminder, the inhibition is the share of the control response that was lost under treatment. In the case of `O=C1CC(C2C=CCCC2)C(=O)N1c1cc(Cl)cc(Cl)c1` (centres unmarked) [2-(cyclohex-2-en-1-yl)-succinic acid N--(3,5-dichlorophenyl)imide, reference compound], the inhibition of growth at 10 ppm in the assay with Botrytis cinerea [1] (setting [3]) and in the assay on Botrytis cinerea [1] (setting [4]) was 0% throughout. Besides, the inhibition of growth at 500 ppm in the assay on Penicillium glaucum came to 0%; with Fusarium nivale, 0%; in the assay with Septoria nodorum, 30%; in the assay on Botrytis cinerea [2], 25%; in the assay with Alternaria solani, 30%. In addition, in the assay on Tilletia tritici, the inhibition at 100 ppm turned out to be 0%.
As for `CCC=CCSC1CC(=O)N(c2cc(Cl)cc(Cl)c2)C1=O` (centres unmarked) [2-(pent-2-en-1-ylmercapto)-succinic acid N--(3,5-dichlorophenyl)imide, reference compound], the inhibition of growth at 10 ppm is 80% with Botrytis cinerea [1] (setting [3]) and 45% with Botrytis cinerea [1] (setting [4]). For the same compound, the inhibition of growth at 500 ppm in the assay on Penicillium glaucum was 10%; with Fusarium nivale, 20%; in the assay on Septoria nodorum, 10%; with Botrytis cinerea [2], 20%; in the assay on Alternaria solani it was 20%. Further, the inhibition at 100 ppm in the assay with Tilletia tritici was 40%.
Regarding `CC(=O)OC1CC(=O)N(c2cc(Cl)cc(Cl)c2)C1=O` (centres unmarked) [2-acetoxysuccinic acid N-(3,5-dichlorophenyl) imide], the inhibition of growth at 10 ppm is 80% with Botrytis cinerea [1] (setting [3]) and 70% with Botrytis cinerea [1] (setting [4]). In addition, the inhibition of growth at 500 ppm in the assay on Penicillium glaucum came out at 100%; in the assay with Fusarium nivale, 100%; with Septoria nodorum, 70%; in the assay with Botrytis cinerea [2], 100%; in the assay with Alternaria solani, 100%. For the same compound, in the assay on Tilletia tritici, the inhibition at 100 ppm turned out to be 100%.
For `C=CCOC1CC(=O)N(c2cc(Cl)cc(Cl)c2)C1=O` (centres unmarked) [2-allyloxysuccinic acid N-(3,5-dichlorophenyl)imide], the inhibition of growth at 10 ppm in the assay with Botrytis cinerea [1] (setting [3]) and with Botrytis cinerea [1] (setting [4]) was 80% in each case. Also, the inhibition of growth at 500 ppm in the assay with Penicillium glaucum was 80%; in the assay with Fusarium nivale it was 70%; with Septoria nodorum, 80%; with Botrytis cinerea [2], 100%; in the assay with Alternaria solani, 80%. The inhibition at 100 ppm in the assay on Tilletia tritici came out at 100%.
For the compound `CCOC1CC(=O)N(c2cc(Cl)cc(Cl)c2)C1=O` (centres unmarked) [2-ethoxysuccinic acid N-(3,5-dichlorophenyl)imide], the inhibition of growth at 10 ppm in the assay on Botrytis cinerea [1] (setting [3]) and in the assay on Botrytis cinerea [1] (setting [4]) was 100% each time. The inhibition of growth at 500 ppm in the assay with Penicillium glaucum amounted to 80%; in the assay with Fusarium nivale, 80%; in the assay on Botrytis cinerea [2], 100%; in the assay with Alternaria solani, 70%. Further, the inhibition at 100 ppm in the assay on Tilletia tritici worked out at 90%.
As for `C=CCN1C(=O)CC(OC(=O)C(C)C)C1=O` (centres unmarked) [2-isobutyroxysuccinic acid N--allylimide, 2-isobutyroxysuccinic acid N-allylimide], in the assay on Tilletia tritici, the inhibition at 100 ppm came to 80%.
Take `CC(C)OC1CC(=O)N(c2cc(Cl)cc(Cl)c2)C1=O` (centres unmarked) [2-isopropoxysuccinic acid N-(3,5-dichlorophenyl)imide]: the inhibition of growth at 10 ppm in the assay with Botrytis cinerea [1] (setting [3]) and in the assay on Botrytis cinerea [1] (setting [4]) was 100% each time. Further, the inhibition of growth at 500 ppm is 100% in the assay with Penicillium glaucum; 50% in the assay on Fusarium nivale; 50% in the assay on Septoria nodorum; 100% in the assay on Botrytis cinerea [2]; 70% in the assay on Alternaria solani. For the same compound, in the assay on Tilletia tritici, the inhibition at 100 ppm came to 100%.
On to `COCC1CC(=O)N(c2cc(Cl)cc(Cl)c2)C1=O` (centres unmarked) [2-methoxymethylsuccinic acid N-(3,5-dichlorophenyl)imide], for which the inhibition of growth at 10 ppm in the assay on Botrytis cinerea [1] (setting [3]) and with Botrytis cinerea [1] (setting [4]) was 100% throughout. For the same compound, the inhibition of growth at 500 ppm with Penicillium glaucum is 100%; in the assay with Fusarium nivale, 100%; in the assay with Septoria nodorum, 70%; in the assay with Botrytis cinerea [2] it was 100%; with Alternaria solani, 100%. Moreover, in the assay with Tilletia tritici, the inhibition at 100 ppm was 100%.
For the compound `COCC1CC(=O)N(c2cccc(Cl)c2)C1=O` (centres unmarked) [2-methoxymethylsuccinic acid N-(3-chlorophenyl)imide], the inhibition of growth at 10 ppm with Botrytis cinerea [1] (setting [3]) came to 90%; in the assay on Botrytis cinerea [1] (setting [4]), 80%. The inhibition at 100 ppm with Tilletia tritici came to 80%.
As for `CCC(C)N1C(=O)CC(COC)C1=O` (centres unmarked) [2-methoxymethylsuccinic acid N-(but-2-yl)imide], in the assay on Tilletia tritici, the inhibition at 100 ppm was 80%.
Turning to `COC1CC(=O)N(c2cc(Cl)cc(Cl)c2)C1=O` (centres unmarked) [2-methoxysuccinic acid N-(3,5-dichlorophenyl) imide], the inhibition of growth at 10 ppm in the assay with Botrytis cinerea [1] (setting [3]) and with Botrytis cinerea [1] (setting [4]) was 100% throughout. The inhibition of growth at 500 ppm was determined as 80% in the assay with Penicillium glaucum, 90% with Fusarium nivale, 100% with Botrytis cinerea [2] and 90% in the assay with Alternaria solani. The inhibition at 100 ppm with Tilletia tritici is 95%.
Regarding `CCCc1ccc(N2C(=O)CC(OC)C2=O)cc1` (centres unmarked) [2-methoxysuccinic acid N--(4-propylphenyl)imide], the inhibition at 100 ppm with Tilletia tritici worked out at 80%.
For the compound `CC(C)NC(=O)N1CC(=O)N(c2cc(Cl)cc(Cl)c2)C1=O` [Rovral, 3-(3,5-dichlorophenyl)-1-isopropylcarbymoylhydantoin, reference compound], the inhibition of growth at 500 ppm was 60% in the assay on Penicillium glaucum; 0% in the assay on Fusarium nivale; 30% in the assay with Septoria nodorum; 100% with Botrytis cinerea [2]; 0% with Alternaria solani. Besides, the inhibition at 100 ppm with Tilletia tritici is 75%.
